Measured values from PMC4514850, “A Novel TGR5 Activator WB403 Promotes GLP-1 Secretion and Preserves Pancreatic β-Cells in Type 2 Diabetic Mice” (PLoS ONE, 2015).

Experiments:
TGR5 = settings: moderate bile acids; ref [22], [34]; cited from earlier work
db/db mice = assay: pancreas histology (H&E, IHC) of treated db/db mice; type: in vivo
Description: Analysis of islet cell mass was performed using conventional methods. In brief, mice were sacrificed by cervical dislocation. The body part of the pancreas was rapidly excised, fixed in 10% neutral buffered formalin solution for 24 h and embedded in paraffin, then sectioned at 5 μm ready for hematoxylin and eosin (H&E) staining and immunohistochemistry staining (IHC). The latter was carried out using rabbit anti-insulin polyclonal antibody (Cat. no. 4590, 1:600) and rabbit anti-glucagon monoclonal antibody (Cat. no. 8233s, 1:200) from Cell Signaling Technology.
Fig 5 WB403 preserved the mass of pancreatic β-cells and normal distribution of α and β-cells. (A) H&E staining of pancreas from db/db mice, and statistical result. Islets were sized by the Image J analysis software on alternated pancreatic sections spaced each by 100 μm. (B) Immunohistochemical analysis of pancreatic sections by anti-insulin antibody or anti-glucagon antibody. (C) H&E staining of pancreas from HFD/STZ mice, and statistical result. Results are representative islets from each group. 1–5 in the column graph on the right represents normal mice, diabetic mice treated with vehicle, WB403 50 mg/kg, WB403 100 mg/kg, sitagliptin 100 mg/kg respectively (n = 5). *p<0.05, **p<0.01, ***p<0.001 vs. diabetes-vehicle group.

gallbladders of mice = assay: gallbladder filling in normal mice; type: in vivo; settings: 200 mg/kg ip, normal mice fasted overnight, gallbladders removed 30 min later, n = 10
From the text: (§1) Fig 1 WB403 activated TGR5 and promoted active GLP-1 secretion. (A) WB403 stimulated hTGR5 in CRE-luciferase report system at the concentration range of 1–20 μmol/l. (B) WB403 stimulated hTGR5 specific cAMP accumulation at the concentration range of 1–50 μmol/l. n = 3. **p<0.01, ***p<0.001 vs. DMSO (+TGR5) group. (C) The hTGR5 targeted CRE-luciferase activity of WB403 and ZY403. […] (D) Effect of WB403 and ZY403 on gallbladders of mice. Normal mice were fasted overnight and treated with compounds (200 mg/kg) or vehicle (DMSO) by ip injection. Gallbladders (GB) were removed 30 min later and volumes measured then normalized to body weight (B.W.). n = 10. **p<0.01 vs. vehicle group. (E) Structure of WB403 and ZY403. WB403 promoted GLP-1 secretion in NCI-H716 cells (F), primary enterocytes (G), and MIN6 cells (H). n = 3. *p<0.05, **p<0.01, ***p<0.001 vs. vehicle group. (I) WB403 promoted GLP-1 in ICR mice. n = 5. **p<0.01 vs. vehicle group. Values represent mean ± SEM.

hTGR5 = biological target: T1, hTGR5 (Homo sapiens, UniProt Q8TDU6); assay: human TGR5 CRE-luciferase assay in co-transfected 293T cells; type: cell-based
T1 construct: expressed in transfected cells; host or cells: 293T cells, transient transfection with pTGR5 (gift from Prof. Johan Auwerx)
T1 sequence (Q8TDU6 1-330): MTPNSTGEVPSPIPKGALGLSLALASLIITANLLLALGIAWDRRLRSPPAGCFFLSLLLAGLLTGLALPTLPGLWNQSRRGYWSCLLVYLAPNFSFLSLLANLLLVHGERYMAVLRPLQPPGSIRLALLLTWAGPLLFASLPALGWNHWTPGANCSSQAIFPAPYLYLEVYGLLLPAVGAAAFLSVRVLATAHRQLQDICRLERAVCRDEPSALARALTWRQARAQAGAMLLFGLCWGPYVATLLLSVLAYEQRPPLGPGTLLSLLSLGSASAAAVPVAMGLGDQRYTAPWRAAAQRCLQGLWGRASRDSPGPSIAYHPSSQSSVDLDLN
Description: For human TGR5 luciferase (luc) assay, 293T cells were co-transfected with pCRE-luc, pTGR5 (kind gift from Prof. Johan Auwerx, Ecole Polytechnique Fédérale de Lausanne, Lausanne, Switzerland) and pRenilla (Promega, USA). WB403 was added 5 h later. Cells were harvested after 16 h and subjected to luciferase analysis on Lumistar Optima chemiluminescent detector (BMG labtech, Germany). For cAMP testing, 293T cells transiently transfected with pTGR5 or pGPR119 (GeneCopoeia, USA) were washed by FBS-free DMEM, and stimulated with WB403 in FBS-free DMEM containing 3-isobutyl-1-methyl-xanthine (IBMX, Sigma). Cell lysates were collected 30 min later and used for cAMP ELISA assay. FLIPR Calcium 5 assay kit (Molecular Devices, USA) was used for calcium mobilization assay. 293-GPR40 stable cells (kindly provided by Prof. Naiming Zhou of Zhejiang University, Hanzhou, China) or 293 cells transient transfected with GPR120 were seeded at 50,000 cells per well in black-walled clear-bottomed 96-well plates (Costar). An equal volume of loading buffer containing Fluo 4-AM was added the following day and cells were incubated for 1 h before stimulated with compounds. Increase of the intracellular Ca^2+ concentration was monitored by Flexstation 3 system (Molecular Devices, USA).
as §1

NCI-H716 cells = assay: active GLP-1 secretion in NCI-H716 cells; type: cell-based, human; settings: 10 μmol/l, 30 min
Description: Endocrine differentiation was induced by seeding NCI-H716 cells in plates coated with Matrigel (Becton Dickinson). Cells were washed with RPMI-1640 medium without FBS and incubated in the same medium containing indicated compounds at 10 μmol/l. The condition medium was collected after 30 min. GLP-1 secretion in MIN6 or primary enterocytes was conducted similarly. To isolate primary enterocytes, ileum or colon was cut into 2 cm length, rinsed by PBS (pH7.2∼7.4) before dispersed in 10 mmol/l EDTA/PBS (pH7.4) for 15 min at room temperature, followed by pipetting up and down. Enterocytes were collected by filtration through a 70 μm cell strainer. To study the effect of WB403 on GLP-1 secretion in vivo, mice in group of three were fasted overnight and orally received 0, 50, 100 mg/kg of WB403 dispersed in 0.5% CMC with a DPP-4 inhibitor (5 mg/kg). There were 5 animals in each group. 2 g/kg glucose was administrated 30 min later and blood was collected 10 min after glucose challenge.
The GLP-1 (active) ELISA kit was purchased from Millipore, and insulin ELISA kit was from Mercodia. For quantitative determination of cAMP, a competitive enzyme immunoassay kit from R&D system was used. All immunoassays were performed according to manufacturers’ instructions.

With C[C@H](CCC(=O)O)[C@H]1CC[C@H]2[C@@H]3[C@H](O)C[C@@H]4C[C@H](O)CC[C@]4(C)[C@H]3C[C@H](O)[C@]12C [CA, cholicacid] as the compound, how does the EC50 (TGR5) read?
The EC50 was 7.72 µM.

Which “islet area vs vehicle” value (db/db mice; H&E, after 4-week treatment) does the source give for N[C@@H](CC(=O)N1CCn2c(nnc2C(F)(F)F)C1)Cc1cc(F)c(F)cc1F [sitagliptin, sitagliptin phosphate, reference compound] here?
Its value is “bigger islet area as compared to the vehicle mice, though no significant difference was found”.

What about the “α-cell and β-cell distribution in islets” value (db/db mice; IHC anti-insulin / anti-glucagon) of the same compound?
Its value is “significantly reduced α-cell in the islet core area and restored the normal cell distribution pattern”.

What does the source list for CCc1cc(-c2nc(CCOCc3ccc(Br)cc3)cs2)ccn1 [ZY403]?
gallbladder filling (gallbladders of mice): caused gallbladder filling; EC50 (hTGR5; CRE-luciferase, 293T cells, Fig 1C, read-out: EC50, hTGR5 targeted CRE-luciferase activity): 1.3 µM; TGR5 luciferase activity in primary screen (fold increase compared to DMSO control) (hTGR5; screen of 100 compounds, S1 Fig): highest luciferase activity; GLP-1 stimulation in NCI-H716 cells (NCI-H716 cells): did not show a strong stimulation for GLP-1 activity
